# Assay results as given in patent publication US20240391896A1 (Nantong Jutai Biotech Co., Ltd., priority 2021, published 2024).
# Like-named read-outs stand apart in the source and are kept apart here.
# Key:
# HCT116 cells = test: CCK8 cell viability assay in HCT116 cells; format: cell-based; details: Homo sapiens, HCT-116; Table 2, HCT116 cells, 24 hours
# Protocol: • 1. HCT116 cell plating
# Digesting, counting, and plating the cells in 96-well plates (flat bottom, transparent) with 10,000 cells/100 ul DMEM (10% FBS) per well; • 2. Observing the state of cells on the next day, and start dosing after cell attachment is intact; • 3. diluting 514 with DMEM (2% FBS) by gradient dilution with concentrations of 20 μM, 10 μM, 5 μM, 2.5 μM, 1.25 μM, 0.625 μM, 0.3125 μM, 0.15625 μM, 0 μM (equal volume of DMSO); • 4. Adding 100 μl of the above different concentrations of 514 to each well, and making two repeat wells for each concentration gradient; leaving three blank wells (only adding DMEM 2% FBS culture medium without cells). • 5. Culturing at 37° C. for 24 hours; • 6. Adding 10 μl CCK-8 enhanced solution to each well: due to the small amount added of CCK-8 in each well, it may cause errors resulting from the reagent staining on the wall of the well. It is recommended to gently tap the culture plate after adding the reagent to help mixing; • 7. Incubating in the incubator for 0.5-4 hours: the amount of Formazan formed is not the same for different cell types, in most cases, incubation for 1 hour is enough. If the color development is not enough, incubation can be continued to determine optimal conditions. • 8. Measuring the absorbance at 450 nm and 600 nm (excluding the interference of the background color of the reagent and the absorbance value of the well plate itself); • 9. Using OD450 nm-OD600 nm for the final absorbance, and calculating the inhibition rate:
# [formula] • As: absorbance of experimental wells (medium containing cells, CCK-8, drug to be tested); • Ac: absorbance of control wells (medium containing cells, CCK-8, and no drug to be tested); • Ab: absorbance of blank wells (medium without cells and drug to be tested, CCK-8). (3) qPCR • 1. HCT116 cell plating
# Human AXIN2 = test: qPCR of AXIN2 expression in HCT116 cells; format: cell-based; details: HCT-116, Table 2, HCT116 cells, AXIN2 vs β-actin, 24 hours
# Protocol: Cells were digesting, counting, and plating cells in 24-well plates (flat bottom, clear), with 3×10^5 cells/500 ul DMEM (10% FBS) per well. • 2. Observing the state of cells on the next day, and start dosing after cell attachment is intact
# Diluting 514 with DMEM (2% FBS) by gradient dilution with concentrations of 20 μM, 10 μM, 5 μM, 2.5 μM, 1.25 μM, 0.625 μM, 0.3125 μM, 0.15625 μM, 0 μM (equal volume DMSO)
# Adding 500 μl of the above different concentrations of 514 to each well, and setting a single well for each concentration gradient except three repeat wells for the 0 μM concentration (double wells for qPCR). • 3. Incubating at 37° C. for 24 hours • 4. Discarding the supernatant, washing once with PBS, and adding trizol at 500/well • 5. RNA extraction (step omitted) • 6. Reverse transcription (step omitted, according to the kit) • 7. qPCR (step omitted, following the kit steps)
# • 8. calculation of inhibition rate
# [1] = system: Human COL1 (collagen type I); test: Transformation of fibroblasts into myofibroblasts (anti-fibrosis test), collagen type I; format: cell-based; details: HFL1 cells, 20 ng/ml TGF-β1, 48 hours, supernatant
# Protocol: (§1) (4) Transformation of Fibroblasts into Myofibroblasts (Anti-Fibrosis Test) • I. Main materials
# (§2) HFL1 medium: F12K+10% FBS, adherent growth • II. Experimental Setup • 1. Normal group (medium only), model group (induced by 20 ng/ml TGF-β1), test sample group (20 ng/ml TGF-β1+ compound with different final concentration) • 2. 5 compounds, 3 concentration gradients, each gradient 2 repeat wells. • II. Experimental steps • 1. Digesting and counting, 5e^5 cells/well/2 ml, and seeded in 6-well plates. • 2. After adherent, adding TGF-β1 at a final concentration of 20 ng/ml and stimulating for 48 hours. Adding compounds with different final concentrations (0, 5 uM, 20 uM). • 3. Collecting the supernatant, and detecting the amount of col1 and col3 in the supernatant by kit. Lysing the cells with lysate solution, centrifuging, and collecting the supernatant. • 4. Detection of a-SMA and other genes by qPCR ii. Test Results • (1) BCL-9 affinity results are shown in Tables 1.1, 1.2, and 1.3, and the test methods were as described above.
# collagen type III = test: Transformation of fibroblasts into myofibroblasts (anti-fibrosis test), collagen type III; format: cell-based; details: Homo sapiens, Fibroblast; HFL1 cells, 20 ng/ml TGF-β1, 48 hours, supernatant; read-out: IC50 Human COL1 (collagen type III)
# Protocol: as §1, §2
# Human a-SMA = test: Transformation of fibroblasts into myofibroblasts (anti-fibrosis test), a-SMA; format: cell-based; details: HFL1 cells, 20 ng/ml TGF-β1, 48 hours, qPCR
# Protocol: as §1, §2
# BCL9/β-catenin = target: T1, BCL9/β-catenin (Homo sapiens, UniProt P35222); test: FP (BCL-9 avidity) fluorescence polarization competition assay with beta-catenin and FAP-Bcl9 tracer; format: binding
# T1 sequence (P35222 1-781): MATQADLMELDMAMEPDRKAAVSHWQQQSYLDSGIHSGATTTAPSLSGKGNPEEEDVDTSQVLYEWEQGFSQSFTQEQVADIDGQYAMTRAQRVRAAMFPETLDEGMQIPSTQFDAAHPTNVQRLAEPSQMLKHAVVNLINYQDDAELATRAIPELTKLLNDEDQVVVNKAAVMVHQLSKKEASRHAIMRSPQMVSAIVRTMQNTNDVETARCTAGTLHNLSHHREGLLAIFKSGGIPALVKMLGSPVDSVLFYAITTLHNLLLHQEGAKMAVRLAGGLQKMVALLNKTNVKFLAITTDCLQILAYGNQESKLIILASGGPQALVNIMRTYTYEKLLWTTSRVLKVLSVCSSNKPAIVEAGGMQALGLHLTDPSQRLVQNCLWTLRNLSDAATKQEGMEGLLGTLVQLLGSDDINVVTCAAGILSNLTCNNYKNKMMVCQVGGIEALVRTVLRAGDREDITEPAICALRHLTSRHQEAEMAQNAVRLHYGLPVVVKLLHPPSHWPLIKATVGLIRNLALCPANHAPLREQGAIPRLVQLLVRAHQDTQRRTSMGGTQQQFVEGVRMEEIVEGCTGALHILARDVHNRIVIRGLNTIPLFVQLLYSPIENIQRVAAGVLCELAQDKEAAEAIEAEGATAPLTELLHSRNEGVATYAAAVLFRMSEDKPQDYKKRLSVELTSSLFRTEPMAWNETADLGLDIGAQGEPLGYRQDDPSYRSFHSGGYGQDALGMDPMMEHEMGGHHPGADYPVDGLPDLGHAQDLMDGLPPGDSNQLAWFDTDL
# Protocol: Incubating for 2 hours on a horizontal shaker. Then adding 2 nM FAP-Bcl9 tracer to each well, and after incubation for 2H on a horizontal shaker, measuring the […].
# [2] = Table 2, FP (BCL-9 affinity), read-out: FP
compound,measurement,setting,value
"CC(C)(Oc1cccc(N2CCC[C@@H](NC(=O)N(Cc3ccc(-c4cn[nH]c4)cc3)C3CC3)C2)c1)C(=O)NCCCN [Compound 19, N-(3-aminopropyl)-2-{3-[(3R)-3-{[cyclopropyl({[4-(1H-pyrazol-4-yl)phenyl]methyl})carbamoyl]amino}piperidin-1-yl]phenoxy}-2-methylpropanamide]",IC50,HCT116 cells,3.26 µM
same,IC50,Human AXIN2,6.11 µM
same,IC50,[1],5.9 µM
same,IC50,collagen type III,5 to 20 µM
same,IC50,Human a-SMA,5 to 20 µM
"CC(C)(Oc1cccc(N2CCC[C@@H](C(=O)N(Cc3ccc(-c4cn[nH]c4)cc3)C3CC3)C2)c1Cl)C(=O)N1CCNCC1 [Compound 7, (3R)-1-(2-chloro-3-{[2-methyl-1-oxo-1-(piperazin-1-yl)propan-2-yl]oxy}phenyl)-N-cyclopropyl-N-{[4-(1H-pyrazol-4-yl)phenyl]methyl}piperidine-3-carboxamide]",IC50,"BCL9/β-catenin; Table 1.2, compounds 7-16, read-out: BCL-9 avidity FP IC50",3.15 µM
same,IC50,BCL9/β-catenin; [2],3.15 µM
same,IC50,HCT116 cells,1.05 µM
same,IC50,Human AXIN2,1.46 µM
same,IC50,[1],10 to 20 µM
same,IC50,collagen type III,10 to 20 µM
same,IC50,Human a-SMA,20 to 30 µM
"CC(C)(Oc1cccc(N2CCC[C@@H](NC(=O)N(Cc3ccc(-c4cn[nH]c4)cc3)C3CC3)C2)c1)C(=O)N1CCNCC1 [Compound 17, 1-cyclopropyl-3-[(3R)-1-(3-{[2-methyl-1-oxo-1-(piperazin-1-yl)propan-2-yl]oxy}phenyl)piperidin-3-yl]-1-{[4-(1H-pyrazol-4-yl)phenyl]methyl}urea]",IC50,HCT116 cells,1.84 µM
same,IC50,Human AXIN2,4.67 µM
same,IC50,[1],10 to 20 µM
same,IC50,collagen type III,20 to 30 µM
same,IC50,Human a-SMA,5 to 10 µM
"CC(C)(Nc1cccc(N2CCC[C@@H](C(=O)N(Cc3ccc(-c4cn[nH]c4)cc3)C3CC3)C2)c1)C(=O)N1CCNCC1 [Compound 15, (3R)-N-cyclopropyl-1-(3-{[2-methyl-1-oxo-1-(piperazin-1-yl)propan-2-yl]amino}phenyl)-N-{[4-(1H-pyrazol-4-yl)phenyl]methyl}piperidine-3-carboxamide]",IC50,"BCL9/β-catenin; Table 1.3, compounds 15-20, read-out: BCL-9 avidity FP IC50",10 to 20 µM
same,IC50,BCL9/β-catenin; [2],10 to 20 µM
same,IC50,HCT116 cells,2.42 µM
same,IC50,Human AXIN2,10 to 20 µM
"CC(C)(Oc1cccc(N2CC(C(=O)N(Cc3ccc(-c4ccccc4)cc3)C3CC3)CC(c3ccccc3)C2)c1)C(=O)N1CCNCC1 (racemic) [Compound 5, N-cyclopropyl-1-(3-{[2-methyl-1-oxo-1-(piperazin-1-yl)propan-2-yl]oxy}phenyl)-5-phenyl-N-[(4-phenylphenyl)methyl]piperidine-3-carboxamide]",IC50,"BCL9/β-catenin; Table 1.1, compounds 1-6, read-out: BCL-9 avidity FP IC50",2.25 µM
same,IC50,BCL9/β-catenin; [2],6.2 µM
same,IC50,HCT116 cells,10 to 20 µM
same,IC50,Human AXIN2,10 to 20 µM
